Measured values: the OligoGym collection
Several values for one entry are separate records, joined by “and”; a condition that tells them apart may be missing. Equal values may be shown once. HELM strings list units from the 5' end as sugar, base in round brackets, then linkage (d deoxyribose, r ribose, m 2'-O-methyl, p phosphodiester). Strings are as the collection lists them, not checked against the first reports. ss, as = sense and antisense strand; [lna] = locked nucleic acid (LNA); [s4r] = 4'-thioribose

Conditions: siRNA
Note: test system not given here.

Substance	target mRNA knockdown
RNA1{[lna](T)p.r(G)p.r(A)p.r(G)p.r(A)p.r(G)p.r(A)p.r(A)p.r(A)p.r(G)p.r(C)p.r(A)p.r(C)p.r(A)p.r(G)p.r(A)p.r(A)p.r(A)p.r(A)p.[lna](T)p.[lna](T)}|RNA2{[lna](T)p.r(U)p.r(U)p.r(U)p.r(C)p.r(U)p.r(G)p.r(U)p.r(G)p.r(C)p.r(U)p.r(U)p.r(U)p.r(C)p.r(U)p.r(C)p.r(U)p.r(C)p.r(A)p.[lna](T)p.[lna](T)}$$$RNA1{StrandType:ss}|RNA2{StrandType:as}$	67% and 72%
RNA1{[lna](T)p.r(G)p.r(A)p.r(G)p.r(A)p.r(G)p.r(A)p.r(A)p.r(A)p.r(G)p.r(C)p.r(A)p.r(C)p.r(A)p.r(G)p.r(A)p.r(A)p.r(A)p.r(A)p.[lna](T)p.[lna](T)}|RNA2{r(U)p.r(U)p.r(U)p.r(U)p.r(C)p.r(U)p.r(G)p.r(U)p.r(G)p.r(C)p.r(U)p.r(U)p.r(U)p.r(C)p.r(U)p.r(C)p.r(U)p.r(C)p.r(A)p.d(T)p.d(T)}$$$RNA1{StrandType:ss}|RNA2{StrandType:as}$	70%
RNA1{[lna](T)p.r(G)p.r(A)p.r(G)p.r(A)p.r(G)p.r(A)p.r(A)p.r(A)p.r(G)p.r(C)p.r(A)p.r(C)p.r(A)p.r(G)p.r(A)p.r(A)p.r(A)p.r(A)p.[lna](T)p.[lna](T)}|RNA2{r(U)p.r(U)p.r(U)p.r(U)p.r(C)p.r(U)p.r(G)p.r(U)p.r(G)p.r(C)p.r(U)p.r(U)p.r(U)p.r(C)p.r(U)p.r(C)p.r(U)p.r(C)p.r(A)p.r(T)p.r(T)}$$$RNA1{StrandType:ss}|RNA2{StrandType:as}$	74%
RNA1{[s4r](A)p.[s4r](A)p.[s4r](A)p.[s4r](C)p.[s4r](A)p.[s4r](U)p.r(G)p.r(C)p.r(A)p.r(G)p.r(A)p.r(A)p.r(A)p.[s4r](A)p.[s4r](U)p.[s4r](G)p.[s4r](C)p.[s4r](U)p.[s4r](G)p.r(T)p.r(T)}|RNA2{r(C)p.r(A)p.r(G)p.r(C)p.r(A)p.r(U)p.r(U)p.r(U)p.r(U)p.r(C)p.r(U)p.r(G)p.r(C)p.r(A)p.r(U)p.[s4r](G)p.[s4r](U)p.[s4r](U)p.[s4r](U)p.r(T)p.r(T)}$$$RNA1{StrandType:ss}|RNA2{StrandType:as}$	84.4%
RNA1{[s4r](A)p.[s4r](A)p.[s4r](A)p.[s4r](C)p.[s4r](A)p.[s4r](U)p.r(G)p.r(C)p.r(A)p.r(G)p.r(A)p.r(A)p.r(A)p.[s4r](A)p.[s4r](U)p.[s4r](G)p.[s4r](C)p.[s4r](U)p.[s4r](G)p.r(T)p.r(T)}|RNA2{r(C)p.r(A)p.r(G)p.r(C)p.r(A)p.r(U)p.r(U)p.r(U)p.r(U)p.r(C)p.r(U)p.r(G)p.r(C)p.r(A)p.r(U)p.r(G)p.r(U)p.r(U)p.r(U)p.r(T)p.r(T)}$$$RNA1{StrandType:ss}|RNA2{StrandType:as}$	75.4% and 87%
RNA1{[s4r](A)p.[s4r](A)p.[s4r](A)p.[s4r](C)p.r(A)p.r(U)p.r(G)p.r(C)p.r(A)p.r(G)p.r(A)p.r(A)p.r(A)p.r(A)p.r(U)p.[s4r](A)p.[s4r](C)p.[s4r](C)p.[s4r](U)p.r(T)p.r(T)}|RNA2{[s4r](C)p.[s4r](A)p.r(G)p.r(C)p.r(A)p.r(U)p.r(U)p.r(U)p.r(U)p.r(C)p.r(U)p.r(G)p.r(C)p.r(A)p.r(U)p.r(G)p.r(U)p.[s4r](U)p.[s4r](U)p.r(T)p.r(T)}$$$RNA1{StrandType:ss}|RNA2{StrandType:as}$	80.8%
RNA1{[s4r](A)p.[s4r](A)p.[s4r](A)p.[s4r](C)p.r(A)p.r(U)p.r(G)p.r(C)p.r(A)p.r(G)p.r(A)p.r(A)p.r(A)p.r(A)p.r(U)p.[s4r](G)p.[s4r](C)p.[s4r](C)p.[s4r](U)p.r(T)p.r(T)}|RNA2{r(C)p.r(A)p.r(G)p.r(C)p.r(A)p.r(U)p.r(U)p.r(U)p.r(U)p.r(C)p.r(U)p.r(G)p.r(C)p.r(A)p.r(U)p.[s4r](G)p.[s4r](U)p.[s4r](U)p.[s4r](U)p.r(T)p.r(T)}$$$RNA1{StrandType:ss}|RNA2{StrandType:as}$	87.3%
RNA1{[s4r](A)p.[s4r](A)p.[s4r](A)p.[s4r](C)p.r(A)p.r(U)p.r(G)p.r(C)p.r(A)p.r(G)p.r(A)p.r(A)p.r(A)p.r(A)p.r(U)p.[s4r](G)p.[s4r](C)p.[s4r](C)p.[s4r](U)p.r(T)p.r(T)}|RNA2{r(C)p.r(A)p.r(G)p.r(C)p.r(A)p.r(U)p.r(U)p.r(U)p.r(U)p.r(C)p.r(U)p.r(G)p.r(C)p.r(A)p.r(U)p.r(G)p.r(U)p.[s4r](U)p.[s4r](U)p.r(T)p.r(T)}$$$RNA1{StrandType:ss}|RNA2{StrandType:as}$	87.7%
RNA1{[s4r](A)p.[s4r](A)p.[s4r](A)p.[s4r](C)p.r(A)p.r(U)p.r(G)p.r(C)p.r(A)p.r(G)p.r(A)p.r(A)p.r(A)p.r(A)p.r(U)p.[s4r](G)p.[s4r](C)p.[s4r](U)p.[s4r](G)p.r(T)p.r(T)}|RNA2{[s4r](C)p.[s4r](A)p.r(G)p.r(C)p.r(A)p.r(U)p.r(U)p.r(U)p.r(U)p.r(C)p.r(U)p.r(G)p.r(C)p.r(A)p.r(U)p.r(G)p.r(U)p.[s4r](U)p.[s4r](U)p.r(T)p.r(T)}$$$RNA1{StrandType:ss}|RNA2{StrandType:as}$	66.3%
RNA1{[s4r](A)p.[s4r](A)p.[s4r](A)p.[s4r](C)p.r(A)p.r(U)p.r(G)p.r(C)p.r(A)p.r(G)p.r(A)p.r(A)p.r(A)p.r(A)p.r(U)p.[s4r](G)p.[s4r](C)p.[s4r](U)p.[s4r](G)p.r(T)p.r(T)}|RNA2{r(C)p.r(A)p.r(G)p.r(C)p.r(A)p.r(U)p.r(U)p.r(U)p.r(U)p.r(C)p.r(U)p.r(G)p.r(C)p.r(A)p.r(U)p.[s4r](G)p.[s4r](U)p.[s4r](U)p.[s4r](U)p.r(T)p.r(T)}$$$RNA1{StrandType:ss}|RNA2{StrandType:as}$	91%
RNA1{[s4r](A)p.[s4r](A)p.[s4r](A)p.[s4r](C)p.r(A)p.r(U)p.r(G)p.r(C)p.r(A)p.r(G)p.r(A)p.r(A)p.r(A)p.r(A)p.r(U)p.[s4r](G)p.[s4r](C)p.[s4r](U)p.[s4r](G)p.r(T)p.r(T)}|RNA2{r(C)p.r(A)p.r(G)p.r(C)p.r(A)p.r(U)p.r(U)p.r(U)p.r(U)p.r(C)p.r(U)p.r(G)p.r(C)p.r(A)p.r(U)p.r(G)p.r(U)p.[s4r](U)p.[s4r](U)p.r(T)p.r(T)}$$$RNA1{StrandType:ss}|RNA2{StrandType:as}$	85.5%
RNA1{[s4r](A)p.[s4r](A)p.[s4r](A)p.[s4r](C)p.r(A)p.r(U)p.r(G)p.r(C)p.r(A)p.r(G)p.r(A)p.r(A)p.r(A)p.r(A)p.r(U)p.[s4r](G)p.[s4r](C)p.[s4r](U)p.[s4r](G)p.r(T)p.r(T)}|RNA2{r(C)p.r(A)p.r(G)p.r(C)p.r(A)p.r(U)p.r(U)p.r(U)p.r(U)p.r(C)p.r(U)p.r(G)p.r(C)p.r(A)p.r(U)p.r(G)p.r(U)p.r(U)p.r(U)p.r(T)p.r(T)}$$$RNA1{StrandType:ss}|RNA2{StrandType:as}$	79.1%
RNA1{[s4r](A)p.[s4r](A)p.[s4r](A)p.[s4r](C)p.r(A)p.r(U)p.r(G)p.r(C)p.r(A)p.r(G)p.r(A)p.r(A)p.r(A)p.r(A)p.r(U)p.r(G)p.r(C)p.r(U)p.r(G)p.r(T)p.r(T)}|RNA2{[s4r](C)p.[s4r](A)p.r(G)p.r(C)p.r(A)p.r(U)p.r(U)p.r(U)p.r(U)p.r(C)p.r(U)p.r(G)p.r(C)p.r(A)p.r(U)p.r(G)p.r(U)p.[s4r](U)p.[s4r](U)p.r(T)p.r(T)}$$$RNA1{StrandType:ss}|RNA2{StrandType:as}$	60.2%
RNA1{[s4r](A)p.[s4r](A)p.[s4r](A)p.[s4r](C)p.r(A)p.r(U)p.r(G)p.r(C)p.r(A)p.r(G)p.r(A)p.r(A)p.r(A)p.r(A)p.r(U)p.r(G)p.r(C)p.r(U)p.r(G)p.r(T)p.r(T)}|RNA2{r(C)p.r(A)p.r(G)p.r(C)p.r(A)p.r(U)p.r(U)p.r(U)p.r(U)p.r(C)p.r(U)p.r(G)p.r(C)p.r(A)p.r(U)p.[s4r](G)p.[s4r](U)p.[s4r](U)p.[s4r](U)p.r(T)p.r(T)}$$$RNA1{StrandType:ss}|RNA2{StrandType:as}$	80.7%
RNA1{[s4r](A)p.[s4r](A)p.[s4r](A)p.[s4r](C)p.r(A)p.r(U)p.r(G)p.r(C)p.r(A)p.r(G)p.r(A)p.r(A)p.r(A)p.r(A)p.r(U)p.r(G)p.r(C)p.r(U)p.r(G)p.r(T)p.r(T)}|RNA2{r(C)p.r(A)p.r(G)p.r(C)p.r(A)p.r(U)p.r(U)p.r(U)p.r(U)p.r(C)p.r(U)p.r(G)p.r(C)p.r(A)p.r(U)p.r(G)p.r(U)p.[s4r](U)p.[s4r](U)p.r(T)p.r(T)}$$$RNA1{StrandType:ss}|RNA2{StrandType:as}$	76.5%
RNA1{[s4r](A)p.[s4r](A)p.[s4r](A)p.[s4r](C)p.r(A)p.r(U)p.r(G)p.r(C)p.r(A)p.r(G)p.r(A)p.r(A)p.r(A)p.r(A)p.r(U)p.r(G)p.r(C)p.r(U)p.r(G)p.r(T)p.r(T)}|RNA2{r(C)p.r(A)p.r(G)p.r(C)p.r(A)p.r(U)p.r(U)p.r(U)p.r(U)p.r(C)p.r(U)p.r(G)p.r(C)p.r(A)p.r(U)p.r(G)p.r(U)p.r(U)p.r(U)p.r(T)p.r(T)}$$$RNA1{StrandType:ss}|RNA2{StrandType:as}$	70.4%
RNA1{[s4r](A)p.[s4r](A)p.r(A)p.r(C)p.r(A)p.r(U)p.r(G)p.r(C)p.r(A)p.r(G)p.r(A)p.r(A)p.r(A)p.r(A)p.r(U)p.r(G)p.r(C)p.r(U)p.r(G)p.r(T)p.r(T)}|RNA2{[s4r](C)p.[s4r](A)p.r(G)p.r(C)p.r(A)p.r(U)p.r(U)p.r(U)p.r(U)p.r(C)p.r(U)p.r(G)p.r(C)p.r(A)p.r(U)p.r(G)p.r(U)p.[s4r](U)p.[s4r](U)p.r(T)p.r(T)}$$$RNA1{StrandType:ss}|RNA2{StrandType:as}$	44.8%
RNA1{[s4r](A)p.[s4r](A)p.r(A)p.r(C)p.r(A)p.r(U)p.r(G)p.r(C)p.r(A)p.r(G)p.r(A)p.r(A)p.r(A)p.r(A)p.r(U)p.r(G)p.r(C)p.r(U)p.r(G)p.r(T)p.r(T)}|RNA2{r(C)p.r(A)p.r(G)p.r(C)p.r(A)p.r(U)p.r(U)p.r(U)p.r(U)p.r(C)p.r(U)p.r(G)p.r(C)p.r(A)p.r(U)p.[s4r](G)p.[s4r](U)p.[s4r](U)p.[s4r](U)p.r(T)p.r(T)}$$$RNA1{StrandType:ss}|RNA2{StrandType:as}$	70.9%
RNA1{[s4r](A)p.[s4r](A)p.r(A)p.r(C)p.r(A)p.r(U)p.r(G)p.r(C)p.r(A)p.r(G)p.r(A)p.r(A)p.r(A)p.r(A)p.r(U)p.r(G)p.r(C)p.r(U)p.r(G)p.r(T)p.r(T)}|RNA2{r(C)p.r(A)p.r(G)p.r(C)p.r(A)p.r(U)p.r(U)p.r(U)p.r(U)p.r(C)p.r(U)p.r(G)p.r(C)p.r(A)p.r(U)p.r(G)p.r(U)p.[s4r](U)p.[s4r](U)p.r(T)p.r(T)}$$$RNA1{StrandType:ss}|RNA2{StrandType:as}$	72.4%
